Drawing on patent publication US20110098296A1, “Thiazole And Oxazole Kinase Inhibitors” (priority 2007, published 2011), this text covers IC50 for 9 molecules.

Test [1] deals with T1, EGFR (Homo sapiens, UniProt P00533).
T1 construct: made in house; host or cells: baculovirus expression system
Put plainly: EGFR substrate phosphorylation assay (HTRF). Format: biochemical. Conditions: Method (A): Enzyme Mix incubated with compound at 20° C. for 1 hr, reaction started by adding Substrate Mix. A digest of the protocol:
(§1)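 Baculovirus-expressed kinase (0.8 nM EGFR or 10 nM ErbB2 in enzyme mix) with Peptide C 0.8 μM and ATP 20 μM (substrate-mix levels), MOPS pH 7.5, MnCl2; 90 min, 20 °C, HTRF anti-phosphotyrosine. Method A adds 1 h enzyme–compound preincubation; B none. pIC50, final compound 0.00027–47.6 μM.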
For orientation: TR-FRET usually uses a lanthanide donor and a delayed reading to cut background.

In test [2] the target is T2, ErbB2 (Homo sapiens, UniProt P04626).
T2 construct: made in house; host or cells: baculovirus expression system
Put plainly: ErbB-2 substrate phosphorylation assay (HTRF). Format: biochemical. Conditions: Method (A): Enzyme Mix incubated with compound at 20° C. for 1 hr, reaction started by adding Substrate Mix. In outline: as §1

Test [3] has as its system HN5 tumor cells. Kind of test: Method C: Cell Growth Inhibition Assay (CellTiter-Glo), HN5. Format: cell-based. The following applies: Homo sapiens, 72 h, 3 days, 4-parameter fit. In outline:
(§2)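 HT-29 and HN5 were grown in high-glucose DMEM with 10% FBS, SK-MEL-28 in EMEM with nonessential amino acids, sodium pyruvate and 10% FBS, and A375P F11s in RPMI with 10% FBS and sodium pyruvate. Cells (500/well) received 1:3 compound dilutions for 3 days, with CellTiter-Glo readout and 4-parameter IC50.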
For orientation: ATP-based viability assays read luminescence as a measure of living cells.

Test [4] has as its system BT474 tumor cells. Put plainly: Method C: Cell Growth Inhibition Assay (CellTiter-Glo), BT474. The test is classed as cell-based. Conditions: Homo sapiens, BT-474, 72 h, 3 days, 4-parameter fit.
Test [5] concerns Colo205 tumor cells. Kind of test: Method C: Cell Growth Inhibition Assay (CellTiter-Glo), Colo205. Conditions: Homo sapiens, COLO 205, 72 h, 3 days, 4-parameter fit. The test is classed as cell-based. A digest of the protocol: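 Cells were seeded at 500 per well and dosed the next day with nine serial 1:3 compound dilutions (0.2% DMSO final), then grown 3 days at 37° C, 5% CO2. ATP was measured by CellTiter-Glo luminescence, and IC50 was interpolated by 4-parameter fit of percent inhibition versus DMSO controls.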

For test [6], the system named is SK-MEL-28 tumor cells. Kind of test: Method C: Cell Growth Inhibition Assay (CellTiter-Glo), SK-MEL-28. The test is classed as cell-based. The following applies: Homo sapiens, SK-MEL-28, 72 h, 3 days, 4-parameter fit. A digest of the protocol:
as §2

For test [7], the system named is A375P F11s tumor cells. Put plainly: Method C: Cell Growth Inhibition Assay (CellTiter-Glo), A375P F11s. The test is classed as cell-based. Conditions: Homo sapiens, 72 h, 3 days, 4-parameter fit. The method, then:
(§3) Human breast tumor cells (BT474) were cultured in RPMI (Mediatech 50-011-PB), containing 10% FBS (JRH Biosciences 12176) and 1% penicillin-streptomycin (Invitrogen 15140). Human head and neck tumor cells (HN5) were cultured in high glucose DMEM (Mediatech 50-013-PB) containing 10% FBS and 1% penicillin-streptomycin. Human colon tumor cells (Colo205) were cultured in RPMI (Mediatech 50-020-PB) containing 10% FBS and 1% penicillin-streptomycin. Human melanoma cancer cells (SK-MEL-28) were cultured in EMEM with nonessential amino acids (Mediatech 50-011-PB) containing 10% FBS, 1% sodium pyruvate (JT Baker 3354-04), and 1% penicillin-streptomycin. Human melanoma cancer cells (A375P F11s) were cultured in RPMI (Mediatech 50-020-PB) containing 10% FBS, 1% sodium pyruvate, and 1% penicillin-streptomycin. Human colon cancer cells (HT-29) were cultured in high glucose DMEM (Mediatech 50-013-PB) containing 10% FBS and 1% penicillin-streptomycin. Human melanoma cancer cells (SK-MEL-3) were cultured in McCoy's 5A (50-025-PB) containing 15% FBS, and 1% penicillin-streptomycin. All cell lines were maintained at 37° C. in a humidified 5% CO2, 95% air incubator. Cells were harvested using trypsin/EDTA (Invitrogen 25200), counted using an haemocytometer, and plated. For 96-well assays (using white full-area NUNC plates cat. #136102), cells were plated in 105 μL at the following densities (cells/well): HN5, 500; Colo205, 500; SK-MEL-28, 500; A375P-F11s, 500; HT-29, 500; SK-MEL-3, 500; and BT474, 3000. For 384-well assays (white full-area NUNC plates, cat. #781080), cells were plated in 48 μL at the following densities (cells/well): HN5, 500; Colo205, 500; SK-MEL-28, 500; A375P-F11s, 500; HT29, 500; SK-MEL-3, 500; and BT474, 2000.
(§4) The next day, compounds were diluted as follow: For 96-well assays, 13.5 μL of compound in DMSO were diluted using nine (9) serial 1:3 dilutions of 4.5 μL in 9 μL of DMSO. Medium (270 μl/well of RPMI with 10% FBS and 1% penicillin-streptomycin) was added to the plates. Aliquots (7 μl) were added to cells in the final assay giving a final DMSO concentration of 0.2%. For 384-well assays, 15 μL of compound in DMSO were diluted using nine (9) serial 1:3 dilutions of 5 μL in 10 μL of DMSO, followed by a further dilution of 5 μL of compound with 95 μL of medium, of which 2 μL were added to cells in the final assay giving a final DMSO concentration of 0.2%. Cells were incubated at 37° C., 5% CO2 for 3 days.
(§5) Total ATP was measured (as a surrogate estimate of cell number) using CellTiter-Glo® reagent (Promega G7571). Briefly, plates were removed from the incubator and allowed to equilibrate to room temperature for 30 minutes. CellTiter-Glo® (25 μL or 55 μL for 384-well or 96-well assays, respectively) reagent was added to each well and plates were shaken on an orbital plate shaker for 2 mins. Plates were incubated without shaking for a further 30 mins and read on an LJL Analyst GT reader in luminometer mode with an integration time of 0.5 seconds per well. Percent inhibition of cell growth was calculated relative to DMSO vehicle-treated control wells. Concentration of compound required to give 50% inhibition of vehicle-treated control cell growth (IC50) was interpolated using a 4-parameter fit for determining IC50 using the following equation: Y=A+((B−A)/(1+((C/X)̂D))) where X=IC50.

The subject of test [8] is HT-29 tumor cells. Kind of test: Method C: Cell Growth Inhibition Assay (CellTiter-Glo), HT-29. Conditions: Homo sapiens, HT-29, 72 h, 3 days, 4-parameter fit. Format: cell-based. The method, then:
as §3, §4, §5

The test system of test [9] is SK-MEL-3 tumor cells. Kind of test: Method C: Cell Growth Inhibition Assay (CellTiter-Glo), SK-MEL-3. Conditions: Homo sapiens, SK-MEL3, 72 h, 3 days, 4-parameter fit. The test is classed as cell-based. The method, then: as §3, §4, §5

T2 sequence (P04626 23-1255): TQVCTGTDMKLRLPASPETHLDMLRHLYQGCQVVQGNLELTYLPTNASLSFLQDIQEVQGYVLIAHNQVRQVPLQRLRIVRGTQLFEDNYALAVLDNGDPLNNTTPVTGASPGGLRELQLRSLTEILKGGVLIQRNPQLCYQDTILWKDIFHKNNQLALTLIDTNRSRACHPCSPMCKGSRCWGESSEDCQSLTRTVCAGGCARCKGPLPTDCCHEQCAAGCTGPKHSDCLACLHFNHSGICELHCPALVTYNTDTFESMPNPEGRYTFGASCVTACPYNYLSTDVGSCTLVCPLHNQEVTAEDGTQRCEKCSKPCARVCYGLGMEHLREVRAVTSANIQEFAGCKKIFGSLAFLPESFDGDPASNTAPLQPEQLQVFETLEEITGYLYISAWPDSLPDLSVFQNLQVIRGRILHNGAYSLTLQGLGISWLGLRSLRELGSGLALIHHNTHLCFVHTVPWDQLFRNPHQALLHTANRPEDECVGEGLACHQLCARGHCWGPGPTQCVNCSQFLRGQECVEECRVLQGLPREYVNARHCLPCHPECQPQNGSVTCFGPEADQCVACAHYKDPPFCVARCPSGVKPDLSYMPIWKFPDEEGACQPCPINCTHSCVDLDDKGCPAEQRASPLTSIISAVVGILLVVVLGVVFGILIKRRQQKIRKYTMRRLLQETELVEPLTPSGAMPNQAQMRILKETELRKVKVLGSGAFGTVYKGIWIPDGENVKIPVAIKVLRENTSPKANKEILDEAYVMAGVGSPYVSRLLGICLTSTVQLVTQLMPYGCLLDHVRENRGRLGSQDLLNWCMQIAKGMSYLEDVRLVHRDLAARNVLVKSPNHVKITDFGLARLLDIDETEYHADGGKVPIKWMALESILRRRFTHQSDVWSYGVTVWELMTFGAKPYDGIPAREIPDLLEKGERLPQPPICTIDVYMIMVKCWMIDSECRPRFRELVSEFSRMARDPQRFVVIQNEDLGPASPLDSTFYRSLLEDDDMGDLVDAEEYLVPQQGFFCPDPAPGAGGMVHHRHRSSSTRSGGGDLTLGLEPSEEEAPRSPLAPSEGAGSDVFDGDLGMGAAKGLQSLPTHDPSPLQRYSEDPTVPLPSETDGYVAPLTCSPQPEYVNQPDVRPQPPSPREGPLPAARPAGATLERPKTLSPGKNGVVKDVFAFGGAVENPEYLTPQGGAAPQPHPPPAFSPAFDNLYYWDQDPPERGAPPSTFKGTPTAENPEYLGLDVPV
T1 sequence (P00533 25-1210): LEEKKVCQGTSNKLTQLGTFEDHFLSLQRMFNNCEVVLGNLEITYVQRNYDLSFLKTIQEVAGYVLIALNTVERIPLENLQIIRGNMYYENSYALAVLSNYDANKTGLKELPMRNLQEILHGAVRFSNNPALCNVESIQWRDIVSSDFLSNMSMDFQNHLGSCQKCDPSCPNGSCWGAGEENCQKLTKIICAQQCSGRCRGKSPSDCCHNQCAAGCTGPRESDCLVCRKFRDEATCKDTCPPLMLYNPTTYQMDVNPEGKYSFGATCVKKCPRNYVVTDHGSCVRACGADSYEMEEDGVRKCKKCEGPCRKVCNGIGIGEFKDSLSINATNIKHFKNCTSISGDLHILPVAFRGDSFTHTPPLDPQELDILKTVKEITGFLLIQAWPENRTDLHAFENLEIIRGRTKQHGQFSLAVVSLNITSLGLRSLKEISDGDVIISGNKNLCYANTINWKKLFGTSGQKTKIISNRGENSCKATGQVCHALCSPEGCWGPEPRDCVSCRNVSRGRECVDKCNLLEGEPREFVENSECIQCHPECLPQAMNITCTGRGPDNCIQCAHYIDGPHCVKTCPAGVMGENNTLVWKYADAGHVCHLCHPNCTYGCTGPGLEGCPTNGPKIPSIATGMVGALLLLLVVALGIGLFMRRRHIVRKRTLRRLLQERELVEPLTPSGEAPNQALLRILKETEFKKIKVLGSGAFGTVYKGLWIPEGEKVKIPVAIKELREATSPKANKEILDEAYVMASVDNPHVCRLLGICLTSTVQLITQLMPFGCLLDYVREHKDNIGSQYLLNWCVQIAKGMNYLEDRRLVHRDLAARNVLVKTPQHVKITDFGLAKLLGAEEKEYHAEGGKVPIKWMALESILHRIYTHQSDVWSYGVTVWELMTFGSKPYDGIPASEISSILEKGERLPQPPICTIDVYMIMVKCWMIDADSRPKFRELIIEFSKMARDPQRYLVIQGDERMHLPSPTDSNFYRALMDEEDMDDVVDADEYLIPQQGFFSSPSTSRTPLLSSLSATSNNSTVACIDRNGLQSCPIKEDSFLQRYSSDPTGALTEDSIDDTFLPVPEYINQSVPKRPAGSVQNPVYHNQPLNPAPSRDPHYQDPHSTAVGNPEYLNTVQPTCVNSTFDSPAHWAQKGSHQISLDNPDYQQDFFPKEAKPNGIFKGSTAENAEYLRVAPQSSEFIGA

For orientation: IC50 means the concentration that gives 50% inhibition. On to `O=C(Nc1cccc(-c2nc(CO)sc2-c2ccnc(Nc3ccc(OCCN4CCCC4)c(F)c3)n2)c1)c1c(F)cccc1F` [Example 126, 2,6-Difluoro-N-{3-[5-{2-[(3-fluoro-4-{[2-(1-pyrrolidinyl)ethyl]oxy}phenyl)amino]-4-pyrimidinyl}-2-(hydroxymethyl)-1,3-thiazol-4-yl]phenyl}benzamide], for which the IC50 was under 100 nM in test [1]; under 100 nM in test [2]; under 100 nM in test [3]; under 100 nM in [4]; 100 to 1000 nM in test [5]; 100 to 1000 nM in test [6]. For the same molecule, the IC50 in test [7], in [8] and in test [9] was 100 to 1000 nM throughout.
`O=C(Nc1cccc(-c2ncsc2-c2ccnc(Nc3cccc(CN4CCCC4)c3)n2)c1)c1c(F)cccc1F` [Example 94, 2,6-Difluoro-N-{3-[5-(2-{[3-(1-pyrrolidinylmethyl)phenyl]amino}-4-pyrimidinyl)-1,3-thiazol-4-yl]phenyl}benzamide]: the IC50 was under 100 nM in [1]; under 100 nM in test [2]; under 100 nM in test [3]; under 100 nM in test [4]; 100 to 1000 nM in test [5]; over 1000 nM in test [6]. Besides, the IC50 was over 1000 nM in test [7], 100 to 1000 nM in test [8] and 100 to 1000 nM in test [9].
`Cc1nc(-c2cccc(NC(=O)c3cccc(C(F)(F)F)c3)c2)c(-c2ccnc(Nc3ccc4c(c3)CN(C)CC4)n2)s1` [Example 131, N-[3-(2-Methyl-5-{2-[(2-methyl-1,2,3,4-tetrahydro-7-isoquinolinyl)amino]-4-pyrimidinyl}-1,3-thiazol-4-yl)phenyl]-3-(trifluoromethyl)benzamide]: the IC50 in test [1] was under 100 nM; in [2], under 100 nM; in test [3] it was over 1000 nM; in test [4] it was over 1000 nM; in test [5], over 1000 nM; in [6] it was over 1000 nM. The IC50 in test [7], in test [8] and in [9] was over 1000 nM throughout.
With `CN(C)C1Cc2ccc(Nc3nccc(-c4sc(N)nc4-c4cccc(NC(=O)c5c(F)cccc5F)c4)n3)cc2C1` (stereo not drawn) [Example 12, N-{3-[2-Amino-5-(2-{[2-(dimethylamino)-2,3-dihydro-1H-indeN-5-yl]amino}-4-pyrimidinyl)-1,3-thiazol-4-yl]phenyl}-2,6-difluorobenzamide], the IC50 in [1] is under 100 nM; in [2], under 100 nM; in [3], under 100 nM; in test [4] it was under 100 nM; in test [5], 100 to 1000 nM; in [6], over 1000 nM. Further, the IC50 in [7], in [8] and in test [9] was 100 to 1000 nM in each case.
`Cc1nc(-c2cccc(NC(=O)c3cc(F)ccc3F)c2)c(-c2ccnc(Nc3ccc(OCCN(C)C)c(F)c3)n2)s1` [Example 128, N-[3-(5-{2-[(4-{[2-(Dimethylamino)ethyl]oxy}-3-fluorophenyl)amino]-4-pyrimidinyl}-2-methyl-1,3-thiazol-4-yl)phenyl]-2,5-difluorobenzamide]: the IC50 in [1] was under 100 nM; in test [2], under 100 nM; in [3] it was 100 to 1000 nM; in [4] it was 100 to 1000 nM; in [5], over 1000 nM; in [6] it was over 1000 nM. Moreover, the values for the IC50 in test [7], in test [8] and in [9] were over 1000 nM, 100 to 1000 nM and over 1000 nM, respectively.
As to `CN(C)CCOc1ccc(Nc2nccc(-c3sc(N)nc3-c3cccc(NC(=O)c4cc(F)ccc4F)c3)n2)cc1Cl` [Example 56], the IC50 is under 100 nM in test [1]; under 100 nM in test [2]; under 100 nM in test [3]; under 100 nM in [4]; 100 to 1000 nM in test [5]; over 1000 nM in test [6]. In addition, the IC50 in test [7] is 100 to 1000 nM; in test [8] it was 100 to 1000 nM; in test [9], over 1000 nM.
On to `O=C(Nc1cccc(-c2nc(NC3CC3)sc2-c2ccnc(Nc3ccc(OCCN4CCCC4)c(F)c3)n2)c1)c1c(F)cccc1F` [Example 33, N-[3-(2-(Cyclopropylamino)-5-{2-[(3-fluoro-4-{[2-(1-pyrrolidinyl)ethyl]oxy}phenyl)amino]-4-pyrimidinyl}-1,3-thiazol-4-yl)phenyl]-2,6-difluorobenzamide], for which the IC50 in [1] is under 100 nM; in test [2], under 100 nM; in [3] it was 100 to 1000 nM; in test [4], under 100 nM; in test [5] it was 100 to 1000 nM; in test [6], 100 to 1000 nM. Also, the IC50 in [7], in test [8] and in test [9] was 100 to 1000 nM in each case.
In the case of `NS(=O)(=O)CCc1cccc(Nc2nccc(-c3scnc3-c3cccc(NC(=O)c4c(F)cccc4F)c3)n2)c1` [Example 95, N-(3-{5-[2-({3-[2-(Aminosulfonyl)ethyl]phenyl}amino)-4-pyrimidinyl]-1,3-thiazol-4-yl}phenyl)-2,6-difluorobenzamide], the IC50 in test [1] was under 100 nM; in [2], under 100 nM; in [3], under 100 nM; in [4], under 100 nM; in test [5], over 1000 nM; in test [6] it was over 1000 nM. Besides, the results for the IC50 in [7], in test [8] and in [9] were 100 to 1000 nM, 100 to 1000 nM and over 1000 nM, respectively.
For the molecule `CCN(CC)CCOc1cccc(Nc2nccc(-c3sc(N)nc3-c3cccc(NC(=O)c4c(F)cccc4F)c3)n2)c1` [Example 17, N-(3-{2-Amino-5-[2-({3-[2-(diethylamino)ethoxy]phenyl}amino)pyrimidiN-4-yl]-1,3-thiazol-4-yl}phenyl)-2,6-difluorobenzamide], the IC50 was under 100 nM in test [1]; under 100 nM in test [2]; under 100 nM in test [3]; under 100 nM in test [4]; 100 to 1000 nM in test [5]; over 1000 nM in [6]. The IC50 in test [7] is 100 to 1000 nM; in test [8], 100 to 1000 nM; in [9] it was over 1000 nM.
